Source: ChEMBL document CHEMBL4007392, “Modulating Mineralocorticoid Receptor with Non-steroidal Antagonists. New Opportunities for the Development of Potent and Selective Ligands without Off-Target Side Effects” (J Med Chem, 2017)

Experiments:
[1] = target: T1, Mineralocorticoid receptor (Homo sapiens, UniProt P08235); experiment: Antagonist activity at Gal4-fused MR LBD (unknown origin) expressed in human Huh7 cells assessed as inhibition of aldosterone-induced transcriptional activity after 3 hrs by luciferase reporter gene assay; assay type: cell-based
T1 sequence (P08235 whole entry): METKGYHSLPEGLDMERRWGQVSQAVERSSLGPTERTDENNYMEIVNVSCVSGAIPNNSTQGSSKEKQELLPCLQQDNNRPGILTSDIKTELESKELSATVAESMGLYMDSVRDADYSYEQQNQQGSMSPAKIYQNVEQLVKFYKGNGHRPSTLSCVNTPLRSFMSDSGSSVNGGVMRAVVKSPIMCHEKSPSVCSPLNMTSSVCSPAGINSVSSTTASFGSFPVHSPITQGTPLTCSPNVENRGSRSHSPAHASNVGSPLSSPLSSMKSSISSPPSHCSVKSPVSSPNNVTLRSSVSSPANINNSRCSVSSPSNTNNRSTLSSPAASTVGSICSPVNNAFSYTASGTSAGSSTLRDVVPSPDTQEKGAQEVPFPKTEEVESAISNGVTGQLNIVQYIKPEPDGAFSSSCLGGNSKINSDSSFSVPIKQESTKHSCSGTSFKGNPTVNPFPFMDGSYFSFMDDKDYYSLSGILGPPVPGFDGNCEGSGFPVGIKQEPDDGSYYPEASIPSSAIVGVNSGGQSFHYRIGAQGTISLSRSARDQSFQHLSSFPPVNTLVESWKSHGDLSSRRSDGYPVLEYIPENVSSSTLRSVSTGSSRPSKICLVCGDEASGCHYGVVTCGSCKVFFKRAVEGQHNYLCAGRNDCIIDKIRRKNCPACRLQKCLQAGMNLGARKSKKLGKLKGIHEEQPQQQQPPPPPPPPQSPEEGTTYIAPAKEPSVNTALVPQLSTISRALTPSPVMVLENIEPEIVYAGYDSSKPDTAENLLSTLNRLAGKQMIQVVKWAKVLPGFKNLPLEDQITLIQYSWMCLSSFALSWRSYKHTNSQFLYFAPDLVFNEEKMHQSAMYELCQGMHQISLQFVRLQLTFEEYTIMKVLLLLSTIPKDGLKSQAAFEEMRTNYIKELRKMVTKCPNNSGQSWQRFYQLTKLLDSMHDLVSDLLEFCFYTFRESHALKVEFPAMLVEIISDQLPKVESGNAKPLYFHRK

[2] = target: T2, Mineralocorticoid receptor (Homo sapiens) (UniProt P08235); experiment: Antagonist activity at full-length human MR expressed in CHO-K1 cells assessed as inhibition of aldosterone-induced response measured after overnight incubation by luminesence analysis; assay type: cell-based
T2 sequence (whole entry): T1 sequence (P08235 whole entry)

[3] = Clearance in rat; assay type: ADME; conditions: in vivo
[4] = Half life in rat; assay type: ADME; conditions: in vivo
[5] = Half life in human liver microsomes; assay type: ADME, microsome
[6] = Half life in human hepatocytes; assay type: ADME, cell-based, Hepatocyte
Androgen receptor = target: T3, Androgen receptor (Homo sapiens, UniProt P10275); experiment: Antagonist activity at GAL4-fused human AR LBD (667 to 919 residues) expressed in CHO-K1 cells assessed as inhibition of dihydrotestosterone-induced transactivation activity after 5 to 6 hrs by luciferase reporter gene assay; assay type: cell-based
T3 sequence (P10275 whole entry): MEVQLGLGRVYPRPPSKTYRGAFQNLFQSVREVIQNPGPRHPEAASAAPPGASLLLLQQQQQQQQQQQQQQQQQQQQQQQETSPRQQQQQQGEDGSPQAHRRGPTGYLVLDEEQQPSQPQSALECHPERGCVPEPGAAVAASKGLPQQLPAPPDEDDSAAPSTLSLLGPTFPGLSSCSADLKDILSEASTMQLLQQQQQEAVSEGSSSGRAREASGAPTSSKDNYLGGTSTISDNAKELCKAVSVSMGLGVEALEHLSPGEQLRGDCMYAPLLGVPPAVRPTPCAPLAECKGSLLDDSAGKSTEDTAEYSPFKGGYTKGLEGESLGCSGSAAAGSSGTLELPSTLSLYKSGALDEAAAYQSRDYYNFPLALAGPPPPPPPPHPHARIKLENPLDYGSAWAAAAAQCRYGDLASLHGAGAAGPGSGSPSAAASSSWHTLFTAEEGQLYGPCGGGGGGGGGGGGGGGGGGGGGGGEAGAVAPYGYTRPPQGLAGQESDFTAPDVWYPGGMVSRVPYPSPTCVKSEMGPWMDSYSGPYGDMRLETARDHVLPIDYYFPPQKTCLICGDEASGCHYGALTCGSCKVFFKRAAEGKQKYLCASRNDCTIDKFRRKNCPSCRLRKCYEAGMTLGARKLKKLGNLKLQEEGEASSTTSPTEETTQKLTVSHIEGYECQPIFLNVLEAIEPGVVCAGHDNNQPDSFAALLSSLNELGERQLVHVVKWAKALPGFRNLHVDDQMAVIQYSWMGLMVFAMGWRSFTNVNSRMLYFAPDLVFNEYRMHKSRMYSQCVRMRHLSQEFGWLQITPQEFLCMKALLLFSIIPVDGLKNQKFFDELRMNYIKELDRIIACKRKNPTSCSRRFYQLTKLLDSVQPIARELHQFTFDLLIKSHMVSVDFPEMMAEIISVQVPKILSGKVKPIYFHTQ

Progesterone receptor = target: T4, Progesterone receptor (Homo sapiens, UniProt P06401); experiment: Antagonist activity at GAL4-fused human PR LBD (680 to 933 residues) expressed in CHO-K1 cells assessed as inhibition of progesterone-induced transactivation activity after 5 to 6 hrs by luciferase reporter gene assay; assay type: cell-based
T4 sequence (P06401 whole entry): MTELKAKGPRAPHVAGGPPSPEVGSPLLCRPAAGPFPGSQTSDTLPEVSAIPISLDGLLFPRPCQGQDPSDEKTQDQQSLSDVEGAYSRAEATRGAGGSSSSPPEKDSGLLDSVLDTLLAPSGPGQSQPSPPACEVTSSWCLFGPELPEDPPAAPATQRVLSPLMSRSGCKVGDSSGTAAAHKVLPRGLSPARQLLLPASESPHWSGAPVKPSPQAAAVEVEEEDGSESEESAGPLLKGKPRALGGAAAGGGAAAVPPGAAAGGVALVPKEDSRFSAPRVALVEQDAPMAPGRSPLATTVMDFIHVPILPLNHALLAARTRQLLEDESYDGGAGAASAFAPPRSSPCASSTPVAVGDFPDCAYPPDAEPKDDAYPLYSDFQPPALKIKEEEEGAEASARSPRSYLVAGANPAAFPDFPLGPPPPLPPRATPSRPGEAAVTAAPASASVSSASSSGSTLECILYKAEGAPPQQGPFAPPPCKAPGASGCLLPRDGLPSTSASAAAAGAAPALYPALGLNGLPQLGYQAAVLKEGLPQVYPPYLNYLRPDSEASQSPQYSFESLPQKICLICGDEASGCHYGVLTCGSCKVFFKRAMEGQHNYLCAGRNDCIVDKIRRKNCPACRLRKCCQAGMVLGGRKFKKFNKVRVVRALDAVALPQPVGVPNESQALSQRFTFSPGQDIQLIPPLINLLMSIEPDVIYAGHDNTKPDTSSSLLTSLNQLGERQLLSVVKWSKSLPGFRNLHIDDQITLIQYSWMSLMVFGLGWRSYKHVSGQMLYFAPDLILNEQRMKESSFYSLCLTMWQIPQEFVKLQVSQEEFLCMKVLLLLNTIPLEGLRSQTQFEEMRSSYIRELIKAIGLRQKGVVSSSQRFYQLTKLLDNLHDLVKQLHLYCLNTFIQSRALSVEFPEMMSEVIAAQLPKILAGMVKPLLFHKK

[7] = target: T1, Mineralocorticoid receptor; experiment: Antagonist activity at Gal4-fused human MR LBD (734 to 985 residues) expressed in CHO-K1 cells after 5 to 6 hrs by luciferase reporter gene assay; assay type: cell-based
Glucocorticoid receptor [8] = target: T5, Glucocorticoid receptor (Homo sapiens, UniProt P04150); experiment: Antagonist activity at GAL4-fused human GR LBD (443 to 777 residues) expressed in CHO-K1 cells assessed as inhibition of dexamethasone-induced transactivation activity after 5 to 6 hrs by luciferase reporter gene assay; assay type: cell-based
T5 sequence (P04150 whole entry): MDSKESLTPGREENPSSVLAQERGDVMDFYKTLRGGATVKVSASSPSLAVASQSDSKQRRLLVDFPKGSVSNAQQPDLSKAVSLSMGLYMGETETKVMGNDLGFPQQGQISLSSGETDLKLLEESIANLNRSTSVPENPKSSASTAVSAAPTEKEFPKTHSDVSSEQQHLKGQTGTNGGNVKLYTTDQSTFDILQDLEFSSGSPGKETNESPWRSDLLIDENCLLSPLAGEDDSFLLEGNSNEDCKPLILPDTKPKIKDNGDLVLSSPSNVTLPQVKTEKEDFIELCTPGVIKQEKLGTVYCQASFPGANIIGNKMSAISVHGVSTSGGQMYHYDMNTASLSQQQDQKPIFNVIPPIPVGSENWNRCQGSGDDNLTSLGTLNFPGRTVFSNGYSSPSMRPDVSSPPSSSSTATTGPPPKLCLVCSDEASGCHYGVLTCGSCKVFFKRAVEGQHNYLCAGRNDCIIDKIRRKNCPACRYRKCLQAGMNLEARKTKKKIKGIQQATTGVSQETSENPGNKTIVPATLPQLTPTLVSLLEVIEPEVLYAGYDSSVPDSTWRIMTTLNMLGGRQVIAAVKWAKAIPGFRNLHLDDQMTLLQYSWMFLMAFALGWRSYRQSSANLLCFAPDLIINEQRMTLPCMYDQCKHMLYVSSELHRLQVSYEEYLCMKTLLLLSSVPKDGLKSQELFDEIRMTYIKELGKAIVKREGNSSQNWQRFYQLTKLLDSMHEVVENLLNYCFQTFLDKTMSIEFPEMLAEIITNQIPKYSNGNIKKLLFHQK

[9] = target: T1, Mineralocorticoid receptor; experiment: Displacement of [3H]-Aldosterone from MR overexpressed in human 293 cells measured after overnight incubation by TopCount method; assay type: cell-based
Glucocorticoid receptor [10] = target: T5, Glucocorticoid receptor; experiment: Displacement of [3H]-dexamethasone from GR overexpressed in human 293 cells measured after overnight incubation by TopCount method; assay type: cell-based
[11] = target: T6, Mineralocorticoid receptor (Rattus norvegicus, UniProt P22199); experiment: Displacement of [3H]-Aldosterone from MR in rat renal soluble fraction measured after 18 hrs in presence of glucocorticoid receptor antagonist RU-486 by liquid scintillation counting method
T6 sequence (P22199 whole entry): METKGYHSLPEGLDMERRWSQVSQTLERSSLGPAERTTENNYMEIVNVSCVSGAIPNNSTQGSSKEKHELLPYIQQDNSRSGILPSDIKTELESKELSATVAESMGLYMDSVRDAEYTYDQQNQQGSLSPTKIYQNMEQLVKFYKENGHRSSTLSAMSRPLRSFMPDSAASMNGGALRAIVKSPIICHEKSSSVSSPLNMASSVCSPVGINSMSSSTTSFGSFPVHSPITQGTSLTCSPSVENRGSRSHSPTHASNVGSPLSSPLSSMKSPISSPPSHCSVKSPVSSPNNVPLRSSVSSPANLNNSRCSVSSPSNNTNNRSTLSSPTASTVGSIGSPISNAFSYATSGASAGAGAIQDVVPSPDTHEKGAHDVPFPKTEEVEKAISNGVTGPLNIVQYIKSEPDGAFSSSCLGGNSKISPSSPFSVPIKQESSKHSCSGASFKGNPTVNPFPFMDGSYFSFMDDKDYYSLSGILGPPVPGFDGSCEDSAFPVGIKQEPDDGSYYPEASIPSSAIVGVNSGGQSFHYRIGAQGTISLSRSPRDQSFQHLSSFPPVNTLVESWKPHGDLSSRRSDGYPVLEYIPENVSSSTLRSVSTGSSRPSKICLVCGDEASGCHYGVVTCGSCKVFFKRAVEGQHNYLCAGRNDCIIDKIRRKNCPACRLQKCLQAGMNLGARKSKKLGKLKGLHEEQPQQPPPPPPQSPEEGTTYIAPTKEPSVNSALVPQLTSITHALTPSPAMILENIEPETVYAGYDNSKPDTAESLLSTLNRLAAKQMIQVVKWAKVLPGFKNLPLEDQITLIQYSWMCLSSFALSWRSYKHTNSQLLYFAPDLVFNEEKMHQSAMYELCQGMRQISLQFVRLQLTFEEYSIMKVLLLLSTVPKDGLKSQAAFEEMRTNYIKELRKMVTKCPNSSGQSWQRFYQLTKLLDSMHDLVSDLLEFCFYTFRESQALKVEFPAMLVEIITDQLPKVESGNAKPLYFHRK

Question: Which IC50 [1] does the source give for `C[C@@H]1CN(c2ccc3c(c2)NC(=O)CO3)[C@H](c2ccccc2F)CO1` here?
Answer: 33.4 nM

Question: Which Inhibitory potency [2] does the source give for `CCC(O)C(CC)(c1ccc(C(F)(F)F)cc1)n1ncc2c(NS(C)(=O)=O)cccc21` (configuration not stated) here?
Answer: 4 nM

Question: What about the clearance [3] of the same compound?
Answer: 24 mL/min/kg

Question: And the half-life [4]?
Answer: 318 min

Question: What about the half-life [5] of the same compound?
Answer: 72 min

Question: And the half-life [6]?
Answer: > 90 min

Question: Which results are given for `CCOc1ncc(C)c2c1[C@H](c1ccc(C#N)cc1OC)C(C#N)=C(C)N2`?
Answer: IC50 (Androgen receptor): 2400 nM; IC50 (Progesterone receptor): 4.2 µM; IC50 [7]: 26 nM; IC50 (Glucocorticoid receptor [8]): 5.8 µM

Question: Which Ki [9] does the source give for `CC(c1ccccc1)(c1c[nH]c2c(NS(C)(=O)=O)cccc12)C1CC1` (configuration not stated) here?
Answer: ≤ 500 nM

Question: And the Ki (Glucocorticoid receptor [10])?
Answer: ≤ 500 nM

Question: For `COc1cc(NC(=O)c2ccc(-c3ccccc3C(F)(F)F)c(COC(C)=O)c2)ccc1S(N)(=O)=O`, which IC50 [11] is on record?
Answer: 31 nM

Question: Which Inhibitory potency [2] does the source give for `CCC(c1ccc(C(F)(F)F)cc1)(C(O)C(F)F)n1ncc2c(NS(C)(=O)=O)cccc21` (configuration not stated) here?
Answer: 11 nM

Question: What about the clearance [3] of the same compound?
Answer: 3.8 mL/min/kg

Question: What about the half-life [4] of the same compound?
Answer: 594 min

Question: And the half-life [5]?
Answer: 62 min

Question: What about the half-life [6] of the same compound?
Answer: > 90 min

Question: Which IC50 (Androgen receptor) does the source give for `CCOc1nccc2c1[C@H](c1ccc(C#N)cc1OC)C(C#N)=C(C)N2` here?
Answer: 2800 nM

Question: What about the IC50 (Progesterone receptor) of the same compound?
Answer: 5.4 µM

Question: And the IC50 [7]?
Answer: 47 nM

Question: And the IC50 (Glucocorticoid receptor [8])?
Answer: 6.9 µM
